Results taken from patent US6022983A, “Pyronin antibacterials, process and novel intermediates thereto” (Scriptgen Pharmaceuticals, Inc., priority 1998, dated 2000).
Converted amounts (≈) assume the structure as drawn. Where two headings read alike, the source gives them in different places.

What was measured:
[1] = tested on: rifampicin resistant strains; assay: microbe, parasite or virus in culture; settings: Staphylococcus aureus
Experimental: (§1) Microdilution Minimal Inhibitory Concentration (MIC) and Minimum Bactericidal Concentration (MBC) Assays
(§2) The MIC is reported as a range between the concentration at which no growth is observed and the concentration of the dilution which immediately followed. Selected inhibitors from the RNA polymerase screen described above were tested for their ability to inhibit bacterial growth in a broth microdilution assay as follows. […] Dilution of antimicrobial agents is performed in a sterile, covered 96-well microliter plate with flat bottom wells (Costar #9017), and each well contains 100 μL of both +/- antimicrobial agent. The final concentrations of the small molecule antimicrobial agents are 100, 50, 25, 12.5, 6.25, 3.12, 1.56, 0.78, 0.39, 0.20, 0.10, and 0.05 μg/mL, respectively. Different dilutions are performed for natural product extracts. They are first diluted 100-fold with Mueller-Hinton broth. The final dilutions of the natural product extracts are 200, 400, 800, 1600, 3200, 6400, 12800, 25600, 51200, 1×105, 2×105, and 4×105 -fold. A 1 % DMSO (no-drug) row is prepared in Mueller-Hinton broth as a control for 100% growth on each plate. A Mueller-Hinton broth only with no bacteria growth is also included as a negative control for each plate. Ampicillin and rifampin are used as positive controls against all bacterial strains in every experiment.
(§3) The overnight culture of a single colony is diluted in sterile Mueller-Hinton broth so that, after inoculation, each well contains approximately 5×10^5 CFU/mL. Within 15 minutes of preparation, […] of the adjusted inoculum suspension is added to the microliter plate. Each well is diluted with an equal volume of the antimicrobial agent/control substance diluted with sterile Mueller-Hinton broth. The inoculated microliter plate is incubated at 35° C. for 16-20 hours. The turbidity of each well is determined by measuring the absorbance at 595 nm on the BioRad Model 3550-UV microplate reader. The rows containing broth only (no cells) serve as a control, and the rows containing the titration of 1% DMSO serve as a control for 100% growth. The average of the broth only controls is subtracted from the average of each duplicate. This value is subsequently normalized to the average of the DMSO controls.

[2] = tested on: rifampicin susceptible strains; assay: microbe, parasite or virus in culture; settings: Staphylococcus aureus
Experimental: as §1, §2, §3

[3] = biological target: E. coli RNA polymerase (Escherichia coli, UniProt P0A8T7+P0A8V2); assay: In vitro transcription assay, E. coli RNA polymerase; format: biochemical; settings: for IC50: Table II, read-out: In vitro transcription (E.coli RNAP) IC50 (converted); for relative potency in in vitro transcription assay (FIG. 20a,b): comparison in words
Chain of E. coli RNA polymerase (P0A8V2 whole entry): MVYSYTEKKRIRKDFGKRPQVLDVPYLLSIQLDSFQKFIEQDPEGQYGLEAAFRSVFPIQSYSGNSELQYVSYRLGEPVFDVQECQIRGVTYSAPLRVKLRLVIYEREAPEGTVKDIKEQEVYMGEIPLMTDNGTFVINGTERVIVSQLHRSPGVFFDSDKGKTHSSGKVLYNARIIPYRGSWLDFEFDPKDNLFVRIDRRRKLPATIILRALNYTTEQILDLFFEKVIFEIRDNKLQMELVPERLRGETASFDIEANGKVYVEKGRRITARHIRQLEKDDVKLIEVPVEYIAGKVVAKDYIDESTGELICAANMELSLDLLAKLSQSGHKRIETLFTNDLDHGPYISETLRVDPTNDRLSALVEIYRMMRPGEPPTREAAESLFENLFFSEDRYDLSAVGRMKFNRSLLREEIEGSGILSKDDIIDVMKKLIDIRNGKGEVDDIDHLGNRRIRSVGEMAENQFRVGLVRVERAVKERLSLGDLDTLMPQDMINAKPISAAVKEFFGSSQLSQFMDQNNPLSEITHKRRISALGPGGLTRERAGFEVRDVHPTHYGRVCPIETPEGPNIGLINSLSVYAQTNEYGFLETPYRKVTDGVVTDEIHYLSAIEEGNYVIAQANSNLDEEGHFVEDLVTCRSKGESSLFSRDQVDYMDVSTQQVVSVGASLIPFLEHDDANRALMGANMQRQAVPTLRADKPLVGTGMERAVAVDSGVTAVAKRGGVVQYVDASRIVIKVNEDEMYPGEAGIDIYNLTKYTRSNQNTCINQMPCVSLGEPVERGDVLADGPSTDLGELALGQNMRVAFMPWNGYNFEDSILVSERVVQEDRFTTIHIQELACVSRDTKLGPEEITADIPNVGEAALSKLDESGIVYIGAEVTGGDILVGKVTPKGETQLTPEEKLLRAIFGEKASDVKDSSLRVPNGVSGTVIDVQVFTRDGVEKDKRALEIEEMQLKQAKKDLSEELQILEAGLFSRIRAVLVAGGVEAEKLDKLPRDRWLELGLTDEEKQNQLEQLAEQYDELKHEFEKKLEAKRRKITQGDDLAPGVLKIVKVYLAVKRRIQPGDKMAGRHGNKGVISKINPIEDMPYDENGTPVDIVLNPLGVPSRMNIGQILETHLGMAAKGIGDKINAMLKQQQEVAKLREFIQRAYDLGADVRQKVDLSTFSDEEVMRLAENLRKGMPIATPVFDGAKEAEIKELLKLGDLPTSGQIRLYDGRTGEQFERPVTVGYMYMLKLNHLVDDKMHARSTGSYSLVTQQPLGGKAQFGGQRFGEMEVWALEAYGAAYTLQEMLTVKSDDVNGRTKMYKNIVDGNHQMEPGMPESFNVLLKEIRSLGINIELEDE
Chain of E. coli RNA polymerase (P0A8T7 whole entry): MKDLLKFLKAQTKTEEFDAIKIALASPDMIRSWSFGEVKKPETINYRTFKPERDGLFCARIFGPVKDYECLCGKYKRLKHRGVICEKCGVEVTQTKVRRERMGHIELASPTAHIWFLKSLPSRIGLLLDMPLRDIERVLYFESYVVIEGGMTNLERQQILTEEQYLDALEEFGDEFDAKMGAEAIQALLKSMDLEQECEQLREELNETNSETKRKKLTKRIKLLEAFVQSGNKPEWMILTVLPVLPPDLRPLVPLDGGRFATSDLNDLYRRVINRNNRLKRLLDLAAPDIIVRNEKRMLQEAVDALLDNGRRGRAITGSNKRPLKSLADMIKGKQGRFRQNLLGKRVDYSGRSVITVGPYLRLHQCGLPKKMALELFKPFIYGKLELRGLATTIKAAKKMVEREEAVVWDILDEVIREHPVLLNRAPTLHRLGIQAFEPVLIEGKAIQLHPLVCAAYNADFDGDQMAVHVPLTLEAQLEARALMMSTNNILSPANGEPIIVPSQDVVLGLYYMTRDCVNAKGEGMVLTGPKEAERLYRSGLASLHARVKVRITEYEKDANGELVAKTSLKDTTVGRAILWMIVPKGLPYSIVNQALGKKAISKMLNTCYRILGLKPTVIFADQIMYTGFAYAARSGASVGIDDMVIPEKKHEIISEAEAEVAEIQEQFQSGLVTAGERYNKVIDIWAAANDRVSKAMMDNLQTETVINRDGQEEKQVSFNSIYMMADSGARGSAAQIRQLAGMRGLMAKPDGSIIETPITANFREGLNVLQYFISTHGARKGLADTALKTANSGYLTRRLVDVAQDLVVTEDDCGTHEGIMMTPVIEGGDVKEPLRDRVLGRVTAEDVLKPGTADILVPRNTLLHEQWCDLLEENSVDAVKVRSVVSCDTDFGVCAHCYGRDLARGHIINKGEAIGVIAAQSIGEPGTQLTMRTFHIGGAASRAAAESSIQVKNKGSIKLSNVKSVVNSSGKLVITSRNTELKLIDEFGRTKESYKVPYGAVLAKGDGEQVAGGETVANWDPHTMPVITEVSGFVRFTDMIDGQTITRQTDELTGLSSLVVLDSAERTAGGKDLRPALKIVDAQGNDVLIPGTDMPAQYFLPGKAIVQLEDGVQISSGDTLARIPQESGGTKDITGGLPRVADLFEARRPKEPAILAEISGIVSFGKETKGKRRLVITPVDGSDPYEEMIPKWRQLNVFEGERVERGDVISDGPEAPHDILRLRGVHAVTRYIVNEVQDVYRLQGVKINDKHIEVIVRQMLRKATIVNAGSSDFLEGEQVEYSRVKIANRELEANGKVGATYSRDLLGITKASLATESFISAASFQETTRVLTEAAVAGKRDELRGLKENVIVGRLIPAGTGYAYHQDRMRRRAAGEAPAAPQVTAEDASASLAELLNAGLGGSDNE
Chain of E. coli RNA polymerase (P0A7Z4 whole entry partner): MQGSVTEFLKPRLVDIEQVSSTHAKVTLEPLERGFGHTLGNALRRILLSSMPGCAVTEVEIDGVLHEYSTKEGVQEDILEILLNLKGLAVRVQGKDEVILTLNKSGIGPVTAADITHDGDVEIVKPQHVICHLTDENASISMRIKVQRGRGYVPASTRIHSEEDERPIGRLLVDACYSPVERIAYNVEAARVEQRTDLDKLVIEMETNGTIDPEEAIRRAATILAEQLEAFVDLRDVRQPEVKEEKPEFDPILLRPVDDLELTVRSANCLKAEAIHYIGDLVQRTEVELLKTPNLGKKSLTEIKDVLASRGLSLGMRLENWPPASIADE
Chain of E. coli RNA polymerase (P0A800 whole entry partner): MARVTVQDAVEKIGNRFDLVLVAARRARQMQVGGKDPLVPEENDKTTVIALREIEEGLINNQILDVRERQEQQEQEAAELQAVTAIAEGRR
Experimental: In vitro transcription reactions. [α^32 P] UTP-incorporated RNA was synthesized in 50 μl reaction volumes containing transcription buffer (50 mM Tris-HCl, pH 8.0, 200 mM KCl, 10 mM MgCl2, 10 mM DTT and 1.5 μM BSA), 1 μg of DNA template, 4 μM UTP containing 5 μCi of [α^32 P] UTP, 400 μM each of ATP, GTP, and CTP. After incubation for 60 minutes at 25° C., the reaction is terminated with 100 μl 10% TCA, which also precipitates the newly transcribed RNA.
Biological Evaluation of (±)-Myxopyronin A & B. The biological activities of the myxypyronins were evaluated with an in vitro transcription assay using E. coli RNA polymerase (FIG. 20a,b). […] As a validation of the in vitro transcription assay, a known transcription inhibitor, rifampicin, was included in the assay.

[4] = tested on: S. aureus; assay: Broth microdilution MIC, S. aureus; format: cell-based; settings: for MIC: Staphylococcus aureus, Table II
Experimental: (§4) Different dilutions are performed for natural product extracts.

[5] = tested on: E. coli; assay: Broth microdilution MIC, E. coli; format: cell-based; settings: Escherichia coli; Table II
Experimental: as §4

[6] = tested on: E. coli* (mutant strain that has permeabilized cell wall); assay: Broth microdilution MIC, E. coli* mutant with permeabilized cell wall; format: cell-based; settings: Escherichia coli, read-out: MIC E. coli*
Experimental: as §4

[7] = tested on: S. aureus*; assay: Broth microdilution MIC, S. aureus* mutant strain; format: cell-based; settings: Staphylococcus aureus, read-out: MIC S. aureus*
Experimental: as §4

## CO[C@H]1/C=C/O[C@@]2(C)Oc3c(C)c(O)c4c(O)c(c(/C=N/N5CCN(C)CC5)c(O)c4c3C2=O)NC(=O)/C(C)=C\C=C\[C@H](C)[C@H](O)[C@@H](C)[C@@H](O)[C@@H](C)[C@H](OC(C)=O)[C@@H]1C [rifampicin]
[1]; read-out: MIC against resistant strains
  MIC: > 10 µM
[1]; read-out: MIC against rifampicin resistant strains
  MIC: > 100 µM
[2]; read-out: MIC against susceptible strains, Example 9 statement b281
  MIC: 10 µM (≈ 8.23 µg/mL)
[2]; read-out: MIC against susceptible strains, background statement b31
  MIC: ~0.01 µM (≈ 0.00823 µg/mL)

## CCCC/C(C)=C/C=C(\C)C(=O)c1c(O)cc(C(C)CC/C=C/NC(=O)OC)oc1=O (racemic) [(±)-Myxo B, (±)-Myxopyronin B]
[3]
  IC50: 11.6 µM
  relative potency in in vitro transcription assay (FIG. 20a,b): more potent molecule than A
[4]; MIC values of Table II, B versus A
  fold more potent cell-based activities than myxopyronin A: up to 30 fold
[4]
  MIC: 0.5 µg/mL (≈ 1.16 µM)
[5]
  MIC: > 30 µg/mL
[6]
  MIC: 2 µg/mL (≈ 4.63 µM)
[7]
  MIC: 0.5 µg/mL (≈ 1.16 µM)

## CCC/C(C)=C/C=C(\C)C(=O)c1c(O)cc(C(C)CC/C=C/NC(=O)OC)oc1=O (racemic) [(±)-Myxo A, (±)-Myxopyronin A]
[3]
  IC50: 47.9 µM
  relative potency in in vitro transcription assay (FIG. 20a,b): equally potent as the natural product mixtures
[4]
  MIC: 15 µg/mL (≈ 35.9 µM)
[5]
  MIC: > 30 µg/mL
[6]
  MIC: 4 to 8 µg/mL (≈ 9.58 to 19.2 µM)
[7]
  MIC: 8 µg/mL (≈ 19.2 µM)
